# Results: patent publication US9839632B2, “Methods and compositions using 4-amino-2-(2,6-dioxo-piperidine-3-yl)-isoindoline-1,3-dione for treatment and management of central nervous system cancers” (CELGENE CORPORATION, priority 2013, dated 2017)
# Read-outs that look alike come from different tables or passages of the source.
# Experiments:
# [1] = system: U937 cells cocultured with Raji lymphoma cells; experiment: Polarization of U937 cocultured with Raji lymphoma cells with or without YTS NK cells; format: cell-based, human; conditions: for M2 polarization of U937 cells (FXIIIA, pSTAT6): coculture with Raji lymphoma cells, without NK cells; for polarization status of U937 cells (iNOS, pSTAT1): triple culture with Raji lymphoma cells and YTS NK cells, 10 ug/ml 48 hours
# Method: Raji lymphoma cells (ATCC), U937 human monocyte cells (ATCC) and YTS NK cells (a gift from Dr. Pamela A. Becker) were cultured at 37° C. in a humidified incubator under 5% CO2 and 95% air in RPMI-1640 supplemented with 20% FCS and 1% penicillin-streptomycin, and 1% nonessential amino acids.
# OCI-LY10 lymphoma cells (a gift from Arthur L. Shaffer III) were cultured at 37° C. in a humidified incubator under 5% CO2 and 95% air in IMDM supplemented with 20% FCS and 1% penicillin-streptomycin. Co-culture of lymphoma cells and U937 monocytes: Raji and U937 monocytes were cultured at 37° C. in a humidified incubator under 5% CO2 and 95% air in RPMI-1640 supplemented with 20% FCS and 1% penicillin-streptomycin, and 1% nonessential amino acids. OCI-LY10 and U937 monocytes were cultured at 37° C. in a humidified incubator under 5% CO2 and 95% air in IMDM supplemented with 20% FCS and 1% penicillin-streptomycin. Triple culture of lymphoma cells, U937 monocytes and YTS cells: Raji, U937 and YTS cells were cultured at 37° C. in a humidified incubator under 5% CO2 and 95% air in RPMI-1640 supplemented with 20% FCS and 1% penicillin-streptomycin, and 1% nonessential amino acids. OCI-LY10, U937 and YTS were cultured at 37° C. in a humidified incubator under 5% CO2 and 95% air in IMDM supplemented with 20% FCS and 1% penicillin-streptomycin.
# (§1) Treatments: In experiments in which IL-4 was used to induce M2 polarization of macrophages, cells were treated with IL-4 (20 ng/ml) for 48 hours followed by treatment with 4-amino-2-(2,6-dioxo-piperidine-3-yl)-isoindoline-1,3-dione (10 ug/ml) or DMSO control for 48 hours. In triple cell culture experiments with lymphoma cells, macrophages, and NK cells, the treatment was with either DMSO or 4-amino-2-(2,6-dioxo-piperidine-3-yl)-isoindoline-1,3-dione (10 ug/ml) for 48 hours.
# Immunofluorescence for analysis of macrophage polarization in cell culture experiments: Live cells were fixed in 10% formalin for 30 minutes at room temperature followed by permeabilization with PBS-0.2% Triton X-100 for 2 min. After blocking with PBS-5% goat serum-0.02% Triton X-100 for 30 minutes at 37° C., the cells were incubated overnight at 4° C. with rat monoclonal F4/80 antibody (for primary microglia cells, 1:200 Abcam), rat monoclonal CD11b (for U937, 1:200 Biolegend), rabbit polyclonal Ym1 antibody (for primary microglia cells and primary peritoneal macrophages, 1:200, Stemcell Technologies, Vancouver, Canada), rabbit polyclonal FXIII A antibody (for U937, 1:200, Abcam), mouse monoclonal p-STAT1 antibody (1:200, Abcam), rabbit polyclonal p-STAT6 antibody (1:200, Abcam) or rabbit iNOS antibody (1:200, Calbiochem). […]
# [2] = system: primary murine microglia cells cocultured with OCI-LY10 lymphoma cells; experiment: Polarization of primary murine microglia cocultured with OCI-LY10 lymphoma cells with or without primary murine NK cells; format: cell-based; conditions: for M2 polarization of microglia cells (FXIIIA, pSTAT6): coculture with OCI-LY10 lymphoma cells, without NK cells; for polarization status of microglia cells (iNOS, pSTAT1): triple culture with OCI-LY10 lymphoma cells and primary murine NK cells, 10 ug/ml 48 hours
# Method: as §1
# Immunofluorescence for analysis of macrophage polarization in cell culture experiments: Live cells were fixed in 10% formalin for 30 minutes at room temperature followed by permeabilization with PBS-0.2% Triton X-100 for 2 min. After blocking with PBS-5% goat serum-0.02% Triton X-100 for 30 minutes at 37° C., the cells were incubated overnight at 4° C. with rat monoclonal F4/80 antibody (for primary microglia cells, 1:200 Abcam), rat monoclonal CD11b (for U937, 1:200 Biolegend), rabbit polyclonal Ym1 antibody (for primary microglia cells and primary peritoneal macrophages, 1:200, Stemcell Technologies, Vancouver, Canada), rabbit polyclonal FXIII A antibody (for U937, 1:200, Abcam), mouse monoclonal p-STAT1 antibody (1:200, Abcam), rabbit polyclonal p-STAT6 antibody (1:200, Abcam) or rabbit iNOS antibody (1:200, Calbiochem). After washing, cells were incubated with the Alexa Fluor 594 Goat anti-Rat IgG secondary antibody (1:1000, Life Technologies) and FITC Donkey anti-rabbit IgG secondary antibody (1:1000, Life technology) or FITC Goat anti-mouse IgG secondary antibody (1:1000, Sigma) at 37° C. for 45 minutes. Finally, Vectashield H-1200 mounting medium with DAPI (Vector Laboratories) was used to stain the nuclei. Images were obtained on a Zeiss LSM 510 META confocal microscope.
# [3] = system: primary murine microglia cells; experiment: Phagocytosis assay, primary murine microglia cells; format: cell-based; conditions: 3 or 10 ug/ml, 48 hours, P<0.05 vs control
# Method: Phagocytosis assay: The impact of 4-amino-2-(2,6-dioxo-piperidine-3-yl)-isoindoline-1,3-dione on the phagocytic activity of macrophages was assessed in primary microglial cells and human monocyte cells (U937). The cells were cultured in complete medium for 4 days. They were then harvested and resuspended in Opti-MEM medium at 10^6 cells/ml and seeded in a 96 well plate at 100,000 viable cells/well. The experimental wells were treated with 4-amino-2-(2,6-dioxo-piperidine-3-yl)-isoindoline-1,3-dione 3 or 10 ug/ml. After 48 hours of treatment, the culture medium was quickly replaced with 100 ul of pHrodo BioParticles suspension (Life technologies and the cells were incubated in the suspension at 37° C. for 2-3 hours. Following incubation, the plates were scanned at 550 nm/600 nm (excitation/emission) using fluorescence plate reader. The fluorescence activity reflects the phagocytic activity of the macrophages. The impact of 4-amino-2-(2,6-dioxo-piperidine-3-yl)-isoindoline-1,3-dione treatment (% effect) was calculated as a fraction of the phagocytic activity in the positive control wells. Wan, C. P.; et al., J. Immunol. Methods, 1993, 162, pp. 1-7.
# [4] = fasted male CD-IGS rats, cited from earlier work; for F: PO 50 mg/kg vs IV 5 mg/kg
# [5] = listed as 4-amino-2-(2,6-dioxo-piperidine-3-yl)-isoindoline-1,3-dione
smiles,measurement,setting,value
"Nc1cccc2c1C(=O)N(C1CCC(=O)NC1=O)C2=O (stereo not drawn) [Pomalidomide, 4-amino-2-(2,6-dioxo-piperidine-3-yl)-isoindoline-1,3-dione]","M2 polarization of U937 cells (FXIIIA, pSTAT6)",[1],reversed
same,"M2 polarization of U937 cells (FXIIIA, pSTAT6)",[1]; [5],prevented the M2 polarization of macrophages but did not induce them into M1 polarization
same,"polarization status of U937 cells (iNOS, pSTAT1)",[1],from M2 to M1
same,"polarization status of U937 cells (iNOS, pSTAT1)",[1]; [5],became M1-polarized
same,"M2 polarization of microglia cells (FXIIIA, pSTAT6)",[2],reversed
same,"M2 polarization of microglia cells (FXIIIA, pSTAT6)",[2]; [5],M2 polarization was not seen
same,"polarization status of microglia cells (iNOS, pSTAT1)",[2],from M2 to M1
same,"polarization status of microglia cells (iNOS, pSTAT1)",[2]; [5],became M1-polarized
same,phagocytic activity,[3],significantly increased
same,F,[4],47.4%
same,F,[4]; listed as CC-4047,47.4 ± 15.2%
same,AUC(0-inf),"[4]; single IV 5 mg/kg, n = 5",7016 ± 1551 ng·h/mL
same,CL,"[4]; single IV 5 mg/kg, n = 5",12.3 mL/min/kg
same,T1/2,"[4]; single IV 5 mg/kg, n = 5",2.44 ± 0.8 h
same,Vss,"[4]; single IV 5 mg/kg, n = 5",1.75 L/kg
same,AUC(0-24),"[4]; single PO 50 mg/kg, n = 4",33155 ± 8561 ng·h/mL
same,Cmax,"[4]; single PO 50 mg/kg, n = 4",3372 ± 758 ng/mL
same,Tmax,"[4]; single PO 50 mg/kg, n = 4",2.0 ± 0.0 h
